# Laboratory results: patent US20220033434A1, “ANDROGEN RECEPTOR NUCLEIC ACIDS AND USES THEREOF” (Avidity Biosciences, Inc., priority 2016, published 2022)
# In the oligonucleotide strings, read from the 5' end, every base follows the letter of its sugar. An asterisk marks phosphorothioate; unmarked linkages are phosphodiester. Other units and linkages are bracketed, terminal groups are in braces. A string of capitals states the bases alone. d = 2'-deoxy (DNA); m = 2'-O-methyl; f = 2'-fluoro
# Columns and labels:
# Type in all cases: cell-based, human
# AR-SV(2) = experiment: AR protein knock-down by Western blot after siRNA transfection in 22RV1 cells: AR-SV(2); details: 5 nM siRNA, 50 h post transfection, compared to controls
# Experimental: (§1) In some instances, a set of AR siRNAs were identified that were predicted to be specific in human and non-human primates (NHP) and cross-reactive with NHPs but not rodent AR mRNA. To identify AR siRNAs that regulate both full length AR and clinically relevant AR splice variants, the search for AR siRNAs was focused primarily, but not exclusively, on exons 1, 2 and 3 of the AR gene, which are common to most AR isoforms. The resulting set of 50 AR siRNAs (Tables 1-3) was assessed in two prostate cancer lines that express high levels of either clinically relevant AR splice variants (22RV1, ATCC) or a full length AR T877A LBD mutant (LNCaP, ATCC). The response of LNCaP tumors in xenograft models to AR antagonists is known to correlate well with clinical responses.
# (§2) To monitor their ability to downregulate various AR isoforms, each siRNA was formulated at a single final concentration of 5 nM with a commercially-available transfection reagent (Lipofectamine RNAiMAX, Life Technologies) according to the manufacturer's “forward transfection” instructions. At 50 h (22RV1) and 72 h (LNCaP) post transfection, cells were harvested, and lysed in RIPA buffer (Pierce) supplemented with HALT protease inhibitors (Pierce) using standard procedures. The protein concentration was determined using a BCA protein concentration kit (Pierce). To monitor AR levels in these lysates, proteins (30 ug/lane) were separated by PAGE on BOLT 4-12% Bis-Tris PA gels (Life Technologies), transferred to nitrocellulose using an iBlot dry blot system (Thermo Fisher), and probed with specific antibodies against a region of the N-terminal domain of human AR that is common in known clinically relevant splice variants (N20, Santa Cruz Biotech). A second antibody against α-Tubulin was used as control (P16, Santa Cruz Biotech). Levels of these proteins in the respective cell lysates were quantified on an Odyssey imaging system (LICOR) using appropriate secondary antibodies linked to IRDyes (800CW, 680RD).
# AR-SV(3) = experiment: AR protein knock-down by Western blot after siRNA transfection in 22RV1 cells: AR-SV(3); details: 5 nM siRNA, 50 h post transfection, compared to controls
# Experimental: as §1, §2
# AR FL(1) = experiment: AR protein knock-down by Western blot after siRNA transfection in 22RV1 cells: AR FL(1); details: 5 nM siRNA, 50 h post transfection, compared to controls
# Experimental: as §1, §2
# [1] = system: AR FL (full length AR T877A LBD mutant); experiment: AR protein knock-down by Western blot after siRNA transfection in LNCaP cells: AR FL; details: 5 nM siRNA, 72 h post transfection, compared to controls
# Experimental: as §1, §2
Substance,% KD AR Protein 22RV1 AR-SV(2) (AR-SV(2)) [%],% KD AR Protein 22RV1 AR-SV(3) (AR-SV(3)) [%],% KD AR Protein 22RV1 AR FL(1) (AR FL(1)) [%],% KD AR Protein LNCaP AR FL [1] [%]
"XD-01841: AR siRNA with chemical modification, Id # 2936; sense X05377 (SEQ ID NO: 207), antisense X05378 (SEQ ID NO: 208) (sense mCmCfGmAfAmGfGmAfAmAfAmAfUmUfGmUfCmCfAdT*dT; antisense fUfGmGfAmCfAmAfUmUfUmUfUmCfCmUfUmCfGmGdT*dT)",85,74,85,99
"XD-01857: AR siRNA with chemical modification, Id # 3473; sense X05409 (SEQ ID NO: 239), antisense X05410 (SEQ ID NO: 240) (sense mCmCfGmAfAmUfGmAfGmGfCmAfCmCfUmCfUmCfUdT*dT; antisense fAfGmAfGmAfGmGfUmGfCmCfUmCfAmUfUmCfGmGdT*dT)",−7,1,79,100
"XD-01832: AR siRNA with chemical modification, Id # 2920; sense X05359 (SEQ ID NO: 189), antisense X05360 (SEQ ID NO: 190) (sense mGmCfAmCfUmAfUmUfGmAfUmAfAmAfUmUfCmCfGdT*dT; antisense fCfGmGfAmAfUmUfUmAfUmCfAmAfUmAfGmUfGmCdT*dT)",93,73,93,92
"XD-01839: AR siRNA with chemical modification, Id # 2933; sense X05373 (SEQ ID NO: 203), antisense X05374 (SEQ ID NO: 204) (sense mAmUfUmCfCmGfAmAfGmGfAmAfAmAfAmUfUmGfUdT*dT; antisense fAfCmAfAmUfUmUfUmUfCmCfUmUfCmGfGmAfAmUdT*dT)",62,56,76,93
"XD-01830: AR siRNA with chemical modification, Id # 2824; sense X05355 (SEQ ID NO: 185), antisense X05356 (SEQ ID NO: 186) (sense mGmUfCmAfCmUfAmUfGmGfAmGfCmUfCmUfCmAfCdT*dT; antisense fGfUmGfAmGfAmGfCmUfCmCfAmUfAmGfUmGfAmCdT*dT)",72,76,75,90
"XD-01837: AR siRNA with chemical modification, Id # 2927; sense X05369 (SEQ ID NO: 199), antisense X05370 (SEQ ID NO: 200) (sense mUmGfAmUfAmAfAmUfUmCfCmGfAmAfGmGfAmAfAdT*dT; antisense fUfUmUfCmCfUmUfCmGfGmAfAmUfUmUfAmUfCmAdT*dT)",94,86,87,91
"XD-01831: AR siRNA with chemical modification, Id # 2847; sense X05357 (SEQ ID NO: 187), antisense X05358 (SEQ ID NO: 188) (sense mGmGfAmAfGmCfUmGfCmAfAmGfGmUfCmUfUmCfUdT*dT; antisense fAfGmAfAmGfAmCfCmUfUmGfCmAfGmCfUmUfCmCdT*dT)",54,59,57,87
"XD-01844: AR siRNA with chemical modification, Id # 2962; sense X05383 (SEQ ID NO: 213), antisense X05384 (SEQ ID NO: 214) (sense mGmUfCmUfUmCfGmGfAmAfAmUfGmUfUmAfUmGfAdT*dT; antisense fUfCmAfUmAfAmCfAmUfUmUfCmCfGmAfAmGfAmCdT*dT)",54,26,56,81
"XD-01815: AR siRNA with chemical modification, Id # 1968; sense X05325 (SEQ ID NO: 155), antisense X05326 (SEQ ID NO: 156) (sense mGmCfCmCfCmAfUmUfGmGfCmCfGmAfAmUfGmCfAdT*dT; antisense fUfGmCfAmUfUmCfGmGfCmCfAmAfUmGfGmGfGmCdT*dT)",5,−15,−10,91
"XD-01852: AR siRNA with chemical modification, Id # 3218; sense X05399 (SEQ ID NO: 229), antisense X05400 (SEQ ID NO: 230) (sense mGmCfUmCfUmCfUmAfGmCfCmUfCmAfAmUfGmAfAdT*dT; antisense fUfUmCfAmUfUmGfAmGfGmCfUmAfGmAfGmAfGmCdT*dT)",8,10,16,34
"XD-01849: AR siRNA with chemical modification, Id # 3105; sense X05393 (SEQ ID NO: 223), antisense X05394 (SEQ ID NO: 224) (sense mCmAfCmAfUmUfGmAfAmGfGmCfUmAfUmGfAmAfUdT*dT; antisense fAfUmUfCmAfUmAfGmCfCmUfUmCfAmAfUmGfUmGdT*dT)",7,−40,86,92
"XD-01836: AR siRNA with chemical modification, Id # 2925; sense X05367 (SEQ ID NO: 197), antisense X05368 (SEQ ID NO: 198) (sense mAmUfUmGfAmUfAmAfAmUfUmCfCmGfAmAfGmGfAdT*dT; antisense fUfCmCfUmUfCmGfGmAfAmUfUmUfAmUfCmAfAmUdT*dT)",83,73,87,91
"XD-01859: AR siRNA with chemical modification, Id # 3481; sense X05413 (SEQ ID NO: 243), antisense X05414 (SEQ ID NO: 244) (sense mGmGfCmAfCmCfUmCfUmCfUmCfAmAfGmAfGmUfUdT*dT; antisense fAfAmCfUmCfUmUfGmAfGmAfGmAfGmGfUmGfCmCdT*dT)",−23,−49,87,100
"XD-01840: AR siRNA with chemical modification, Id # 2935; sense X05375 (SEQ ID NO: 205), antisense X05376 (SEQ ID NO: 206) (sense mUmCfCmGfAmAfGmGfAmAfAmAfAmUfUmGfUmCfCdT*dT; antisense fGfGmAfCmAfAmUfUmUfUmUfCmCfUmUfCmGfGmAdT*dT)",89,75,89,97
"XD-01847: AR siRNA with chemical modification, Id # 3020; sense X05389 (SEQ ID NO: 219), antisense X05390 (SEQ ID NO: 220) (sense mUmGfGmUfAmAfUmCfUmGfAmAfAmCfUmAfCmAfGdT*dT; antisense fCfUmGfUmAfGmUfUmUfCmAfGmAfUmUfAmCfCmAdT*dT)",−10,−68,28,69
"XD-01855: AR siRNA with chemical modification, Id # 3462; sense X05405 (SEQ ID NO: 235), antisense X05406 (SEQ ID NO: 236) (sense mAmGfCmCfAmGfUmGfUmGfUmCfCmGfAmAfUmGfAdT*dT; antisense fUfCmAfUmUfCmGfGmAfCmAfCmAfCmUfGmGfCmUdT*dT)",−1,−18,12,75
"XD-01862: AR siRNA with chemical modification, Id # 3781; sense X05419 (SEQ ID NO: 249), antisense X05420 (SEQ ID NO: 250) (sense mGmCfGmUfGmGfAmCfUmUfUmCfCmGfGmAfAmAfUdT*dT; antisense fAfUmUfUmCfCmGfGmAfAmAfGmUfCmCfAmCfGmCdT*dT)",24,40,92,87
